“Also recorded” adds a separate entry of the source.
What was measured:
[1] = test system: early growth response 1 gene product (EGR1); experiment: Plucked hair assay, EGR1 expression; assay type: cell-based, human; conditions: for EGR1 regulation: BEZ235 and Tarceva 1 μM, 24 hr
Experimental: Donor hairs were plucked from 5 male donor volunteers, immediately transferred to maintenance medium cultures and exposed to varying doses of CTO equivalent to 2 M, 5 μM, and 10 μM carboxyamidotriazole (CAI). The cultures were either maintained for 8 hrs or 24 hrs. Controls were used, for example, Tarceva®. (EGFR inhibitor) at 1 μM and BEZ235 (PI3K inhibitor) at 1 μM for 24 hrs only. Once in culture hairs were collected at the specified periods for mRNA isolation or protein analysis to ensure quality control. Small amounts of RNA (about up to 500 ng) are extracted from the bulbs at the end of the anagen hairs. Representative cDNA was prepared from the RNA and gene expression levels determined by microarray analysis. Biotin labeling, fragmentation and hybridization to 048 Affymetrix U133 plus 2.0 array was done. Bioinformatic analysis was done to identify CTO induced gene expression changes.

PI3K/mTOR pathway = experiment: Plucked hair assay, PI3K/mTOR Signature Score; assay type: cell-based, human; conditions: CTO 8 hr and 24 hr; BEZ235 1 μM 24 hr
Experimental: (§1) Donor hairs were plucked from 5 male donor volunteers, immediately transferred to maintenance medium cultures and exposed to varying doses of CTO equivalent to […], 5 μM, and 10 μM carboxyamidotriazole (CAI). The cultures were either maintained for 8 hrs or 24 hrs. Controls were used, for example, Tarceva®. (EGFR inhibitor) at 1 μM and BEZ235 (PI3K inhibitor) at 1 μM for 24 hrs only. Once in culture hairs were collected at the specified periods for mRNA isolation or protein analysis to ensure quality control. Small amounts of RNA (about up to 500 ng) are extracted from the bulbs at the end of the anagen hairs. Representative cDNA was prepared from the RNA and gene expression levels determined by microarray analysis. Biotin labeling, fragmentation and hybridization to 048 Affymetrix U133 plus 2.0 array was done. […]

PI3K pathway = experiment: Plucked hair assay, PI3K Signature Score; assay type: cell-based, human; conditions: CTO 8 hr and 24 hr; BEZ235 1 μM 24 hr
Experimental: as §1

WNT β-catenin pathway = experiment: Plucked hair assay, WNT β-catenin Signature Score; assay type: cell-based, human; conditions: 24 hrs exposure to CTO
Experimental: as §1

P53 pathway = experiment: Plucked hair assay, P53 Signature Score; assay type: cell-based, human; conditions: all doses of CTO, 8 hr and 24 hr
Experimental: as §1

[2] = test system: Canonical Calcium signaling; experiment: Plucked hair assay, Canonical Calcium signaling Signature Score (KEGG and IPA); assay type: cell-based, human; conditions: KEGG Calcium Signaling Pathway and IPA predicted regulation
Experimental: Canonical calcium signaling was analyzed using the KEGG Calcium Signaling Pathway and IPA to predict regulation of canonical calcium signaling. […] Using ANOVA to filter for informative genes (FDR<0.05 & 1.5) it was noted that suppression of canonical calcium genes occurred across CTO treatment, however this only represented 7/68 canonical pathway genes.
as §1, with “done. Bioinformatic analysis was done to identify CTO induced gene expression changes.” for “done.”

RAS pathway = experiment: Plucked hair assay, RAS pathway Signature Score; assay type: cell-based, human; conditions: different doses of CTO, 8 hr and 24 hr; most obvious at 8 hrs
Experimental: as §1

[3] = test system: ex vivo cultured human anagen hairs; experiment: Plucked hair biomarker platform: global transcriptional response by microarray (probe list, Table 1); conditions: for transcriptional response (differential probes): CTO equivalent to 2, 5, 10 μM CAI, 8 hr and 24 hr, BEZ235 and Tarceva 1 μM, 24 hr
[4] = test system: cancer patients with different tumor types; assay type: in vivo; conditions: CTO given alone
Text: Thus enormous efforts are directed to the development of molecular pharmacodynamics biomarkers of signaling outputs of CTO to design combinatorial regimens against molecular targets in different types of cancers. Current methods for assessing pathway activation in tumors involve the measurement of the drug targets, known oncogenes or known tumor suppressors. However, one pathway can be activated at multiple points so it is not feasible to assess pathway activation by evaluating just known cancer associated genes.

HDAC pathway = experiment: Plucked hair assay, HDAC Signature Score; assay type: cell-based, human; conditions: different doses of CTO, 8 hr and 24 hr
Experimental: as §1

NOTCH pathway = experiment: Plucked hair assay, NOTCH Signature Score; assay type: cell-based, human; conditions: different doses of CTO, 8 hr and 24 hr
Experimental: as §1

MEK pathway = experiment: Plucked hair assay, MEK Signature Score; assay type: cell-based, human; conditions: all CTO treatments at 8 hrs and 24 hrs
Experimental: as §1

EGFR pathway = experiment: Plucked hair assay, EGFR Signature Score; assay type: cell-based, human; conditions: all doses of CTO and time points; Tarceva 1 μM 24 hr
Experimental: as §1

CAI Ex vivo pathway = experiment: Plucked hair assay, CAI Ex vivo Signature Score; assay type: cell-based, human; conditions: different doses of CTO, 8 hr and 24 hr; tissue specific direction of change
Experimental: as §1, with “done. Bioinformatic analysis was done to identify CTO induced gene expression changes.” for “done.”

[5] = test system: non-voltage dependent calcium signaling genes; experiment: Plucked hair assay, non-voltage dependent calcium signaling Signature Score; assay type: cell-based, human; conditions: across CTO treatment; literature determined regulation and ANOVA determined set
Experimental: as §1, with “done. Bioinformatic analysis was done to identify CTO induced gene expression changes.” for “done.”

TGF-β signaling = experiment: Plucked hair assay, TGF-β signaling; assay type: cell-based, human
Experimental: (§2) Donor hairs were plucked from 5 male donor volunteers, immediately transferred to maintenance medium cultures and exposed to varying doses of CTO equivalent to […], 5 μM, and 10 μM carboxyamidotriazole (CAI). The cultures were either maintained for 8 hrs or 24 hrs. Controls were used, for example, Tarceva®. (EGFR inhibitor) at 1 μM and BEZ235 (PI3K inhibitor) at 1 μM for 24 hrs only. Once in culture hairs were collected at the specified periods for mRNA isolation or protein analysis to ensure quality control. Small amounts of RNA (about up to 500 ng) are extracted from the bulbs at the end of the anagen hairs. Representative cDNA was prepared from the RNA and gene expression levels determined by microarray analysis. Biotin labeling, fragmentation and hybridization to 048 Affymetrix U133 plus 2.0 array was done. Bioinformatic analysis was done to identify CTO induced gene expression changes.

Dystonin = experiment: Plucked hair assay, Dystonin expression; assay type: cell-based, human
Experimental: as §2

[6] = test system: Growth Factor Signature (GFS) pathway; experiment: Plucked hair assay, Growth Factor Signature Score; assay type: cell-based, human; conditions: different doses of CTO, 8 hr and 24 hr; most obvious at 8 hrs
Experimental: as §1

[7] = test system: carcinoembryonic antigen-related cell adhesion molecule (CEACAM1); experiment: Plucked hair assay, CEACAM1 expression; assay type: cell-based, human
Experimental: as §2

HSP90 pathway = experiment: Plucked hair assay, HSP90 Signature Score; assay type: cell-based, human; conditions: different doses of CTO, 8 hr and 24 hr; dose dependent
Experimental: as §1

CAI IPA pathway = experiment: Plucked hair assay, CAI IPA Signature Score; assay type: cell-based, human; conditions: different doses of CTO, 8 hr and 24 hr; except at 10 μM
Experimental: as §2, with “changes. […]” for “changes.”

## Cn1c(=O)n(-c2ccc(C(C)(C)C#N)cc2)c2c3cc(-c4cnc5ccccc5c4)ccc3ncc21 [BEZ235, reference compound]
[1]
  EGR1 regulation: suppressed
PI3K/mTOR pathway
  PI3K/mTOR signature: Strong suppression
PI3K pathway
  PI3K signature: Strong suppression

## NC(=O)c1nnn(Cc2cc(Cl)c(C(=O)c3ccc(Cl)cc3)c(Cl)c2)c1N.O=C(O)c1cc(=O)[nH]c(=O)[nH]1 [CTO, carboxyamidotriazole orotate]
WNT β-catenin pathway
  WNT β-catenin signature: modes suppression; also recorded: inhibitory at 24 hr
P53 pathway
  P53 signature: stabilized; also recorded: induction; also recorded: induced
[2]
  canonical calcium signaling pathway signature: No significant suppression
[1]; varying doses of CTO at 8 hr and 24 hrs
  EGR1 up regulation: 6 fold
RAS pathway
  RAS signature: modest down regulation
[3]; 442 unique annotated genes
  net result probes overlapping between the 8 hr and 24 hr lists: 558
[3]; 8 hours
  probes observed: 1440
[3]; 24 hrs
  probes observed: 2961
[3]
  transcriptional response (differential probes): differential probes increased in a dose related manner; also recorded: greatest effect transcriptionally
[3]; high dose CTO/24 hr
  fold range of the overlapping probes: −75 to +33 fold
[4]; cancer patients with different genomic mutations
  tumor response: stable disease or partial response showing tumor shrinkage
[4]; cancer patients, maximum tolerated dose not determined
  safety and tolerability: safe and tolerable
HDAC pathway
  HDAC signature: strongly suppressed; also recorded: weak suppression
NOTCH pathway
  Notch signature: no suppression; also recorded: no activity
MEK pathway
  MEKi signature: strongly suppressed; also recorded: strong inhibition
EGFR pathway
  EGFR signature: strongly suppressed; also recorded: very strong suppression; also recorded: stronger than that in Tarceva® at all doses of CTO and time points
CAI Ex vivo pathway
  IPA CAI list, ex vivo 14 gene set: strong dose dependent suppression
[5]
  non-voltage dependent calcium genes signature: strongly suppressed; also recorded: strong suppression
TGF-β signaling
  TGF-β signaling: inhibited
Dystonin
  Dystonin down regulation: 60 fold
[6]
  Growth Factor signature (GFS): modest down regulation
[7]
  CEACAM1 regulation: down regulated
HSP90 pathway
  HSP90 signature: strong suppression
CAI IPA pathway
  CAI signature (IPA, 29 genes): some suppression

## C#Cc1cccc(Nc2ncnc3cc(OCCOC)c(OCCOC)cc23)c1 [Tarceva®, erlotinib, reference compound]
[1]
  EGR1 regulation: suppressed
[3]
  transcriptional response (differential probes): less differential probes than CTO or BEZ235
[7]
  CEACAM1 regulation: down regulated
